Measurements: patent publication US20120136003A1, “COMPOUNDS, COMPOSITIONS AND METHODS COMPRISING 1,3,4-OXADIAZOLE DERIVATIVES” (Institute For Oneworld Health, priority 2009, published 2012)
pIC50: −log10 of the molar value.

target: CFTR (Homo sapiens, UniProt P13569); assay: T84 assay (FLIPR membrane potential); format: cell-based; set-up: Human colonic T84 cells are acquired from the European Collection of Cell Cultures (ECACC); host or cells: T84 human colonic cells
Description: (§1) For example, Human colonic T84 cells can be acquired from the European Collection of Cell Cultures (ECACC) and grown in standard culture conditions as described by the supplier. On the day before assay 25,000 T84 cells per well are plated into standard black walled, clear bottom 384-well assay plates in standard growth medium consisting of DMEM:F12 with 10% FBS and incubated overnight. On the day of the assay the plates are washed using a standard assay buffer (HBSS with 10 mM Hepes) and incubated for 15 minutes in serum free cell culture medium before the addition of a commercially available membrane potential sensitive fluorescent dye (FLIPR Red membrane potential dye, Molecular Devices Corporation). T84 cells are incubated with the FLIPR Red membrane potential dye for 45 minutes in the presence and absence of test compound before being transferred to a commercially available fluorescence imaging plate reader (FLIPR384, Molecular Devices Corporation). Fluorescence levels are monitored continuously every second for 150 seconds; after an initial 10 second baseline, CFTR channel activity is stimulated through the addition of 10 μM forskolin in the presence of 100 μM of the phosphodiesterase inhibitor iso-butyl-methylxanthine (IBMX). Addition of the forskolin leads to the activation of intracellular adenylyl cylase 1, elevating cAMP levels and results in the phosphorylation and opening of CFTR anion channels. CFTR channel opening causes chloride ion efflux and subsequent depolarization of the cells, which is measured by an increase in fluorescence. CFTR inhibitor compounds prevent cell depolarization and the associated increase in fluorescence.
as §1, with “Human colonic” for “For example, Human colonic”, “T84 cells are acquired from” for “T84 cells can be acquired from”, “(ECACC) and are grown in” for “(ECACC) and grown in”, “with 10 Mm Hepes) and” for “with 10 mM Hepes) and”, “1, elevating Camp levels and” for “1, elevating cAMP levels and”

CFTR, sequence (P13569 whole entry): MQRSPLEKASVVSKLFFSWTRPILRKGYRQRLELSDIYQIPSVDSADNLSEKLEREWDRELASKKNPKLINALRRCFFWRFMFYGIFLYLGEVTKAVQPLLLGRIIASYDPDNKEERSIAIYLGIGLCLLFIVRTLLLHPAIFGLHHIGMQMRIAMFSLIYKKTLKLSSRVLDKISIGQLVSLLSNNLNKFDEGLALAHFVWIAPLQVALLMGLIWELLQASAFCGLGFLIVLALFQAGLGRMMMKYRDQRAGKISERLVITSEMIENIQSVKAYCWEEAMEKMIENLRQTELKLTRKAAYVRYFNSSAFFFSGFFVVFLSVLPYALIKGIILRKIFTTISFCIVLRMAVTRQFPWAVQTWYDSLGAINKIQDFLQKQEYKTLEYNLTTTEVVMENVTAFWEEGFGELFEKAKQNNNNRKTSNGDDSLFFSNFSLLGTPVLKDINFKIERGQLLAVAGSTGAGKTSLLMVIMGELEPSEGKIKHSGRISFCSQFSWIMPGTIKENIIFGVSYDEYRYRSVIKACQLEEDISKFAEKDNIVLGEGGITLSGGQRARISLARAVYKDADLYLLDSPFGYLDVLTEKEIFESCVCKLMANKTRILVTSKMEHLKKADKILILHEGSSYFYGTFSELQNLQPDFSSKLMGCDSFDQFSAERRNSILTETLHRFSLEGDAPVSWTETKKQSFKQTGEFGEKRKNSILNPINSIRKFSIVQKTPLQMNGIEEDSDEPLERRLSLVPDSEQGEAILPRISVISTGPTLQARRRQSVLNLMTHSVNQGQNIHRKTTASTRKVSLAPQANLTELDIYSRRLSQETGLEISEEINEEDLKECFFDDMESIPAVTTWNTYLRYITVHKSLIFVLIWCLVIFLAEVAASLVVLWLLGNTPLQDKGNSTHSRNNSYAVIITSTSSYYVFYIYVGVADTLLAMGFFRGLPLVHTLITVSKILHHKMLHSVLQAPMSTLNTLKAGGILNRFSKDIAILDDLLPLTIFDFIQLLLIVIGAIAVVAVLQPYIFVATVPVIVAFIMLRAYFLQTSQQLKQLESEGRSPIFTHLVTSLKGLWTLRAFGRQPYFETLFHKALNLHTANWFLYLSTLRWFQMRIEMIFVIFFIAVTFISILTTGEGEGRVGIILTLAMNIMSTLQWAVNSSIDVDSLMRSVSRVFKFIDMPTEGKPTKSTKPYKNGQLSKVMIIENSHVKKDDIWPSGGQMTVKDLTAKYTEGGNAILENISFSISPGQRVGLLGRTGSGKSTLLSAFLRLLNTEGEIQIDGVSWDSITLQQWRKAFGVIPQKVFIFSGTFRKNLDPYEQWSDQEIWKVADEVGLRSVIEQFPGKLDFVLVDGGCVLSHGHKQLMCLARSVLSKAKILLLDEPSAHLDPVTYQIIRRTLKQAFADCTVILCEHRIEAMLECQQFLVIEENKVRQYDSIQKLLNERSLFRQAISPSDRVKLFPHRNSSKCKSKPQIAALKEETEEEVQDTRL

Structure (SMILES)	pIC50
O=C(NCc1ccc(Oc2ccccc2)cc1)c1nnc(-c2cccc(NS(=O)(=O)C(F)(F)F)c2)o1 [Compound 7, N-(4-phenoxybenzyl)-5-(3-(trifluoromethylsulfonamido)phenyl)-1,3,4-oxadiazole-2-carboxamide]	4.80
CC(C)(C)c1ccc(CNC(=O)c2nnc(-c3cccc(NS(=O)(=O)C(F)(F)F)c3)o2)cc1 [Compound 9, N-(4-tert-butylbenzyl)-5-(3-(trifluoromethylsulfonamido)phenyl)-1,3,4-oxadiazole-2-carboxamide]	4.72
O=C(c1nnc(-c2cc(Cl)c(O)c(Cl)c2)o1)N1CCC(Cc2ccccc2)CC1 [Compound 3, (4-benzylpiperidin-1-yl)(5-(3,5-dichloro-4-hydroxyphenyl)-1,3,4-oxadiazol-2-yl)methanone]	5.02
O=C(NC(c1ccccc1)c1ccccc1)c1nnc(-c2cc(Cl)c(O)c(Cl)c2)o1 [Compound 6, N-benzhydryl-5-(3,5-dichloro-4-hydroxyphenyl)-1,3,4-oxadiazole-2-carboxamide]	4.84
O=C(NCc1cccc(OC(F)(F)F)c1)c1nnc(-c2cc(Cl)c(O)c(Cl)c2)o1 [Compound 1, 5-(3,5-dichloro-4-hydroxyphenyl)-N-(3-(trifluoromethoxy)benzyl)-1,3,4-oxadiazole-2-carboxamide]	4.76
O=C(c1nnc(-c2cccc(NS(=O)(=O)C(F)(F)F)c2)o1)N1CCC(Cc2ccccc2)CC1 [Compound 8, N-(3-(5-(4-benzylpiperidine-1-carbonyl)-1,3,4-oxadiazol-2-yl)phenyl)-1,1,1-trifluoromethanesulfonamide]	4.88
CC(C)(C)c1ccc(CNC(=O)c2nnc(-c3cc(Cl)c(O)c(Cl)c3)o2)cc1 [Compound 5, N-(4-tert-butylbenzyl)-5-(3,5-dichloro-4-hydroxyphenyl)-1,3,4-oxadiazole-2-carboxamide]	5.13
CN(Cc1ccc(Cl)c(Cl)c1)C(=O)c1nnc(-c2cccc(NS(=O)(=O)C(F)(F)F)c2)o1 [Compound 10, N-(3,4-dichlorobenzyl)-N-methyl-5-(3-(trifluoromethylsulfonamido)phenyl)-1,3,4-oxadiazole-2-carboxamide]	4.93
CN(Cc1ccc(Cl)c(Cl)c1)C(=O)c1nnc(-c2cc(Cl)c(O)c(Cl)c2)o1 [Compound 12, 5-(3,5-dichloro-4-hydroxyphenyl)-N-(3,4-dichlorobenzyl)-N-methyl-1,3,4-oxadiazole-2-carboxamide]	5.73
O=C(c1nnc(-c2cccc(NS(=O)(=O)C(F)(F)F)c2)o1)N1CCN(c2cccc(C(F)(F)F)c2)CC1 [Compound 11, 1,1,1-trifluoro-N-(3-(5-(4-(3-(trifluoromethyl)phenyl)piperazine-1-carbonyl)-1,3,4-oxadiazol-2-yl)phenyl)methanesulfonamide]	4.87
O=C(NCc1ccc(Oc2ccccc2)cc1)c1nnc(-c2cc(Cl)c(O)c(Cl)c2)o1 [Compound 2, 5-(3,5-Dichloro-4-hydroxyphenyl)-N-(4-phenoxybenzyl)-1,3,4-oxadiazole-2-carboxamide]	5.40

Second part, the molecule after the results:

pIC50	Structure (SMILES)
5.00	O=C(NCc1cccc(-c2ccccc2)c1)c1nnc(-c2cc(Cl)c(O)c(Cl)c2)o1 [Compound 19, N-(biphenyl-3-ylmethyl)-5-(3,5-dichloro-4-hydroxyphenyl)-1,3,4-oxadiazole-2-carboxamide]
4.89	CC(C)(C)c1ccc(CNC(=O)c2nnc(-c3ccc(NS(=O)(=O)C(F)(F)F)cc3)o2)cc1 [Compound 20, N-(4-tert-butylbenzyl)-5-(4-(trifluoromethylsulfonamido)phenyl)-1,3,4-oxadiazole-2-carboxamide]
4.69	O=C(c1nnc(-c2ccc(NS(=O)(=O)C(F)(F)F)cc2)o1)N1CCN(c2cccc(C(F)(F)F)c2)CC1 [Compound 25, 1,1,1-trifluoro-N-(4-(5-(4-(3-(trifluoromethyl)phenyl)piperazine-1-carbonyl)-1,3,4-oxadiazol-2-yl)phenyl)methanesulfonamide]
4.85	O=C(NCc1ccc(OC(F)(F)F)cc1)c1nnc(-c2cc(Cl)c(O)c(Cl)c2)o1 [Compound 22, 5-(3,5-dichloro-4-hydroxyphenyl)-N-(4-(trifluoromethoxy)benzyl)-1,3,4-oxadiazole-2-carboxamide]
4.87	O=C(NCc1cc(F)cc(C(F)(F)F)c1)c1nnc(-c2cc(Cl)c(O)c(Cl)c2)o1 [Compound 21, 5-(3,5-dichloro-4-hydroxyphenyl)-N-(3-fluoro-5-(trifluoromethyl)benzyl)-1,3,4-oxadiazole-2-carboxamide]
5.02	CN(Cc1ccc(Cl)c(Cl)c1)C(=O)c1nnc(-c2ccc(NS(=O)(=O)C(F)(F)F)cc2)o1 [Compound 17, N-(3,4-dichlorobenzyl)-N-methyl-5-(4-(trifluoromethylsulfonamido)phenyl)-1,3,4-oxadiazole-2-carboxamide]
5.49	CN(Cc1cccc(Oc2ccccc2)c1)C(=O)c1nnc(-c2cc(Cl)c(O)c(Cl)c2)o1 [Compound 13, 5-(3,5-dichloro-4-hydroxyphenyl)-N-methyl-N-(3-phenoxybenzyl)-1,3,4-oxadiazole-2-carboxamide]
5.12	O=C(NCc1cccc(OCc2ccccc2)c1)c1nnc(-c2cc(Cl)c(O)c(Cl)c2)o1 [Compound 16, N-(3-(benzyloxy)benzyl)-5-(3,5-dichloro-4-hydroxyphenyl)-1,3,4-oxadiazole-2-carboxamide]
5.24	O=C(NCC(c1ccccc1)c1ccccc1)c1nnc(-c2cc(Cl)c(O)c(Cl)c2)o1 [Compound 15, 5-(3,5-dichloro-4-hydroxyphenyl)-N-(2,2-diphenylethyl)-1,3,4-oxadiazole-2-carboxamide]
5.01	O=C(NCc1ccc(OCc2ccccc2)cc1)c1nnc(-c2cc(Cl)c(O)c(Cl)c2)o1 [Compound 18, N-(4-(benzyloxy)benzyl)-5-(3,5-dichloro-4-hydroxyphenyl)-1,3,4-oxadiazole-2-carboxamide]
4.70	O=C(NCc1ccc(F)c(C(F)(F)F)c1)c1nnc(-c2cc(Cl)c(O)c(Cl)c2)o1 [Compound 24, 5-(3,5-dichloro-4-hydroxyphenyl)-N-(4-fluoro-3-(trifluoromethyl)benzyl)-1,3,4-oxadiazole-2-carboxamide]
4.72	O=C(NCc1ccc(Oc2ccccc2)cc1)c1nnc(-c2ccc(NS(=O)(=O)C(F)(F)F)cc2)o1 [Compound 23, N-(4-phenoxybenzyl)-5-(4-(trifluoromethylsulfonamido)phenyl)-1,3,4-oxadiazole-2-carboxamide]
4.56	CC(NC(=O)c1nnc(-c2cc(Cl)c(O)c(Cl)c2)o1)c1ccc(Cl)cc1 (stereo not shown) [Compound 26, N-(1-(4-chlorophenyl)ethyl)-5-(3,5-dichloro-4-hydroxyphenyl)-1,3,4-oxadiazole-2-carboxamide]
5.27	O=C(NCc1cccc(Oc2ccccc2)c1)c1nnc(-c2cc(Cl)c(O)c(Cl)c2)o1 [Compound 14, 5-(3,5-dichloro-4-hydroxyphenyl)-N-(3-phenoxybenzyl)-1,3,4-oxadiazole-2-carboxamide]
